Measurements as given in ChEMBL document CHEMBL3885881, “DrugMatrix”.
“And” between values parts separate entries of the source, which are not always exact repeats. Equal entries are not always repeated.

Species: Rattus norvegicus
Test: DrugMatrix - Regimen: Daily Repeat
Assay type: toxicity, organism-based, Sprague-Dawley
Set-up: regimen Daily Repeat, gender Male, age 6-8 weeks
Conditions: in vivo, po, route oral GAVAGE, vehicle 100 % WATER; for ABSOLUTE BASOPHIL / ABSOLUTE LYMPHOCYTE / ABSOLUTE SEGMENTED NEUTROPHIL / BASOPHIL / EOSINOPHIL / ERYTHROCYTE COUNT / HEMATOCRIT / LEUKOCYTE COUNT / LYMPHOCYTE / MEAN CORPUSCULAR HEMOGLOBIN / MEAN CORPUSCULAR HEMOGLOBIN CONCENTRATION / MEAN CORPUSCULAR VOLUME / MONOCYTE / NEUTROPHIL / NUCLEATED RED BLOOD CELLS / PLATELET COUNT / ABSOLUTE MONOCYTE / ABSOLUTE EOSINOPHIL: tissue Blood; for ALANINE AMINOTRANSFERASE / ALBUMIN / ALKALINE PHOSPHATASE / ASPARTATE AMINOTRANSFERASE / BLOOD UREA NITROGEN / CARBON DIOXIDE / CHLORIDE / CHOLESTEROL / CREATINE PHOSPHOKINASE / CREATININE / GLUCOSE / LACTATE DEHYDROGENASE / LIPASE / PHOSPHORUS / POTASSIUM / SODIUM / TOTAL BILIRUBIN / TOTAL PROTEIN / URIC ACID: tissue Plasma
[1] = 0 mg/kg, 72 h, dose level Control, time 3 day
[2] = 0 mg/kg, 120 h, dose level Control, time 5 day
[3] = 235 mg/kg, 72 h, dose level Low, time 3 day
[4] = 235 mg/kg, 120 h, dose level Low, time 5 day
[5] = 850 mg/kg, 72 h, dose level M1, time 3 day

CCCC(CCC)C(=O)O [VALPROIC ACID]
ABSOLUTE BASOPHIL [1]: 0 CELLS/uL | ABSOLUTE LYMPHOCYTE [1]: 10696 CELLS/uL and 11257.17 CELLS/uL | ABSOLUTE SEGMENTED NEUTROPHIL [1]: 1045.33 CELLS/uL and 1220.33 CELLS/uL | BASOPHIL [1]: 0% | EOSINOPHIL [1]: 1% and 0.33% | ERYTHROCYTE COUNT [1]: 5.87 x10E6/uL and 5 x10E6/uL | HEMATOCRIT [1]: 38.5% and 32.62% | LEUKOCYTE COUNT [1]: 12.07 x10E3/uL and 12.58 x10E3/uL | LYMPHOCYTE [1]: 88.33% and 89% | MEAN CORPUSCULAR HEMOGLOBIN [1]: 23.47 pg and 25.67 pg | MEAN CORPUSCULAR HEMOGLOBIN CONCENTRATION [1]: 35.7 G/DL and 39.35 G/DL | MEAN CORPUSCULAR VOLUME [1]: 65.63 fL and 65.23 fL | MONOCYTE [1]: 2% and 0.67% | NEUTROPHIL [1]: 8.67% and 10% | NUCLEATED RED BLOOD CELLS [1]: 0 /100WBC | PLATELET COUNT [1]: 1151.33 x10E3/uL and 1162.5 x10E3/uL | ALANINE AMINOTRANSFERASE [1]: 60.67 u/L and 45.33 u/L | ALBUMIN [1]: 4.23 G/DL and 3.95 G/DL | ALKALINE PHOSPHATASE [1]: 377.67 u/L and 356.17 u/L | ASPARTATE AMINOTRANSFERASE [1]: 85.33 u/L and 81 u/L | BLOOD UREA NITROGEN [1]: 15 mg/dL and 11 mg/dL | CARBON DIOXIDE [1]: 37 mmol/L and 29.83 mmol/L | CHLORIDE [1]: 97.67 MEQ/L and 97.8 MEQ/L | CHOLESTEROL [1]: 70.67 mg/dL and 65.17 mg/dL | CREATINE PHOSPHOKINASE [1]: 361.67 u/L and 211.33 u/L | CREATININE [1]: 0.18 mg/dL and 0.11 mg/dL | GLUCOSE [1]: 154 mg/dL and 164.67 mg/dL | LACTATE DEHYDROGENASE [1]: 99 u/L and 143.17 u/L | LIPASE [1]: 12.67 u/L and 10.17 u/L | PHOSPHORUS [1]: 9.53 mg/dL and 10.88 mg/dL | POTASSIUM [1]: 5.55 MEQ/L and 6.08 MEQ/L | SODIUM [1]: 143.1 MEQ/L and 141.54 MEQ/L | TOTAL BILIRUBIN [1]: 0.2 mg/dL and 0.23 mg/dL | TOTAL PROTEIN [1]: 5.97 G/DL and 5.65 G/DL | URIC ACID [1]: 0.77 mg/dL and 1 mg/dL | ABSOLUTE BASOPHIL [2]: 0 CELLS/uL | ABSOLUTE LYMPHOCYTE [2]: 9535 CELLS/uL and 9267.83 CELLS/uL | ABSOLUTE MONOCYTE [2]: 182 CELLS/uL and 194.33 CELLS/uL | ABSOLUTE SEGMENTED NEUTROPHIL [2]: 783 CELLS/uL and 572.5 CELLS/uL | BASOPHIL [2]: 0% | EOSINOPHIL [2]: 0% and 0.33% | ERYTHROCYTE COUNT [2]: 5.35 x10E6/uL and 5.41 x10E6/uL | HEMATOCRIT [2]: 34.17% and 36.17% | LEUKOCYTE COUNT [2]: 10.5 x10E3/uL and 10.08 x10E3/uL | LYMPHOCYTE [2]: 89.67% and 92.17% | MEAN CORPUSCULAR HEMOGLOBIN [2]: 24.67 pg and 25.73 pg | MEAN CORPUSCULAR HEMOGLOBIN CONCENTRATION [2]: 38.57 G/DL and 38.45 G/DL | MEAN CORPUSCULAR VOLUME [2]: 63.9 fL and 66.97 fL | MONOCYTE [2]: 1.67% and 1.83% | NEUTROPHIL [2]: 8.67% and 5.67% | PLATELET COUNT [2]: 990 x10E3/uL and 1122.33 x10E3/uL | ALANINE AMINOTRANSFERASE [2]: 46.67 u/L and 52.83 u/L | ALBUMIN [2]: 3.97 G/DL and 4.12 G/DL | ALKALINE PHOSPHATASE [2]: 343.67 u/L and 367.33 u/L | ASPARTATE AMINOTRANSFERASE [2]: 71 u/L and 88 u/L | BLOOD UREA NITROGEN [2]: 11.67 mg/dL and 12.67 mg/dL | CARBON DIOXIDE [2]: 27 mmol/L and 33.67 mmol/L | CHLORIDE [2]: 105.33 MEQ/L and 97 MEQ/L | CHOLESTEROL [2]: 70.67 mg/dL and 67.5 mg/dL | CREATINE PHOSPHOKINASE [2]: 208.67 u/L and 358.67 u/L | CREATININE [2]: 0.1 mg/dL and 0.14 mg/dL | GLUCOSE [2]: 161.33 mg/dL and 152.33 mg/dL | LIPASE [2]: 9.33 u/L and 10.5 u/L | PHOSPHORUS [2]: 12.7 mg/dL and 10.63 mg/dL | POTASSIUM [2]: 5.59 MEQ/L and 5.99 MEQ/L | SODIUM [2]: 147.1 MEQ/L and 141.85 MEQ/L | TOTAL BILIRUBIN [2]: 0.17 mg/dL and 0.2 mg/dL | TOTAL PROTEIN [2]: 5.97 G/DL and 6.18 G/DL | URIC ACID [2]: 0.73 mg/dL and 0.52 mg/dL | ABSOLUTE BASOPHIL [3]: 0 CELLS/uL | ABSOLUTE EOSINOPHIL [3]: 39.33 CELLS/uL | ABSOLUTE LYMPHOCYTE [3]: 3794.33 CELLS/uL | ABSOLUTE MONOCYTE [3]: 121.33 CELLS/uL | ABSOLUTE SEGMENTED NEUTROPHIL [3]: 678.33 CELLS/uL | BASOPHIL [3]: 0% | EOSINOPHIL [3]: 0.67% | ERYTHROCYTE COUNT [3]: 5.06 x10E6/uL | HEMATOCRIT [3]: 32.73% | LEUKOCYTE COUNT [3]: 4.63 x10E3/uL | LYMPHOCYTE [3]: 81.33% | MEAN CORPUSCULAR HEMOGLOBIN [3]: 25.03 pg | MEAN CORPUSCULAR HEMOGLOBIN CONCENTRATION [3]: 38.63 G/DL | MEAN CORPUSCULAR VOLUME [3]: 64.7 fL | MONOCYTE [3]: 2.67% | NEUTROPHIL [3]: 15.33% | NUCLEATED RED BLOOD CELLS [3]: 0 /100WBC | PLATELET COUNT [3]: 772 x10E3/uL | ALANINE AMINOTRANSFERASE [3]: 57 u/L | ALBUMIN [3]: 4.1 G/DL | ALKALINE PHOSPHATASE [3]: 212.67 u/L | ASPARTATE AMINOTRANSFERASE [3]: 81 u/L | BLOOD UREA NITROGEN [3]: 11 mg/dL | CARBON DIOXIDE [3]: 37.33 mmol/L | CHLORIDE [3]: 98.33 MEQ/L | CHOLESTEROL [3]: 62 mg/dL | CREATINE PHOSPHOKINASE [3]: 233 u/L | CREATININE [3]: 0.3 mg/dL | GLUCOSE [3]: 154 mg/dL | LACTATE DEHYDROGENASE [3]: 73 u/L | LIPASE [3]: 10 u/L | PHOSPHORUS [3]: 9.7 mg/dL | POTASSIUM [3]: 5.09 MEQ/L | SODIUM [3]: 143.63 MEQ/L | TOTAL BILIRUBIN [3]: 0.13 mg/dL | TOTAL PROTEIN [3]: 5.57 G/DL | URIC ACID [3]: 0.47 mg/dL | ABSOLUTE BASOPHIL [4]: 0 CELLS/uL | ABSOLUTE EOSINOPHIL [4]: 0 CELLS/uL | ABSOLUTE LYMPHOCYTE [4]: 6770.33 CELLS/uL | ABSOLUTE MONOCYTE [4]: 195 CELLS/uL | ABSOLUTE SEGMENTED NEUTROPHIL [4]: 868 CELLS/uL | BASOPHIL [4]: 0% | EOSINOPHIL [4]: 0% | ERYTHROCYTE COUNT [4]: 5.27 x10E6/uL | HEMATOCRIT [4]: 33.47% | LEUKOCYTE COUNT [4]: 7.83 x10E3/uL | LYMPHOCYTE [4]: 89% | MEAN CORPUSCULAR HEMOGLOBIN [4]: 24.47 pg | MEAN CORPUSCULAR HEMOGLOBIN CONCENTRATION [4]: 38.57 G/DL | MEAN CORPUSCULAR VOLUME [4]: 63.43 fL | MONOCYTE [4]: 2.33% | NEUTROPHIL [4]: 8.67% | NUCLEATED RED BLOOD CELLS [4]: 0 /100WBC | PLATELET COUNT [4]: 955 x10E3/uL | ALANINE AMINOTRANSFERASE [4]: 52.33 u/L | ALBUMIN [4]: 4.03 G/DL | ALKALINE PHOSPHATASE [4]: 290.67 u/L | ASPARTATE AMINOTRANSFERASE [4]: 77.33 u/L | BLOOD UREA NITROGEN [4]: 12 mg/dL | CARBON DIOXIDE [4]: 28.67 mmol/L | CHLORIDE [4]: 103.67 MEQ/L | CHOLESTEROL [4]: 71.67 mg/dL | CREATINE PHOSPHOKINASE [4]: 272 u/L | CREATININE [4]: 0.22 mg/dL | GLUCOSE [4]: 144.33 mg/dL | LACTATE DEHYDROGENASE [4]: 50.67 u/L | LIPASE [4]: 9.33 u/L | PHOSPHORUS [4]: 10.47 mg/dL | POTASSIUM [4]: 5.47 MEQ/L | SODIUM [4]: 144.07 MEQ/L | TOTAL BILIRUBIN [4]: 0.13 mg/dL | TOTAL PROTEIN [4]: 5.93 G/DL | URIC ACID [4]: 0.43 mg/dL | ABSOLUTE BASOPHIL [5]: 0 CELLS/uL | ABSOLUTE EOSINOPHIL [5]: 40.67 CELLS/uL
